Here are results for 38 molecules from ChEMBL document CHEMBL1156802, “Design and synthesis of novel diaminoquinazolines with in vivo efficacy for beta-catenin/T-cell transcriptional factor 4 pathway inhibition” (J Med Chem, 2010).

For orientation: half-life means the time needed for the level to fall by half in the phase considered.

A short description of the series: Metabolic stability in rat liver microsomes assessed as half life. Type of series: ADME, Microsome. On the technique in general: Liver microsomes are vesicles of endoplasmic reticulum, rich in cytochrome P450 enzymes.
In the case of `CNc1nc(NCc2ccc(NC(=O)c3ccc(F)cc3)cc2)c2cc(C)ccc2n1`, the half-life amounted to 6 min.
In the case of `Cc1ccc2c(NCc3ccc(NC(=O)c4ccc(F)cc4)cc3)nc(N3CCCCC3)nc2c1`, the half-life worked out at 3 min.
Take `CC(=O)c1ccc2c(NCc3ccc(NC(=O)c4ccc(F)cc4)cc3)nc(N(C)C)nc2c1`: the half-life amounted to 2 min.
Under `CNc1nc(NCc2ccc(NC(=O)c3ccc(C)cc3)cc2)c2ccccc2n1` stands 16 min.
As for `Cc1ccc2c(NCc3ccc(NC(=O)c4ccc(F)cc4)cc3)nc(N3CCN(C)CC3)nc2c1`, the half-life was found to be 3 min.
As to `Cc1ccc2c(NCc3ccc(NC(=O)c4ccc(F)cc4)cc3)nc(N(C)C)nc2c1`, the half-life came to 12 min.
`Cc1ccc2c(NCc3ccc(NC(=O)c4ccc(F)cc4)cc3)nc(N3CCNCC3)nc2c1`: the half-life was 5 min.
On to `CNc1nc(NCc2ccc(NC(=O)c3ccc(Cl)cc3)cc2)c2cc(C)ccc2n1`, for which the half-life is 6 min.
Take `Cc1ccc2c(NCc3ccc(NC(=O)c4ccc(F)cc4)cc3)nc(N3CCOCC3)nc2c1`: the half-life amounted to 6 min.
Consider `Cc1ccc2c(NCc3ccc(NC(=O)c4ccc(F)cc4)cc3)nc(N3CCC3)nc2c1`, for which the half-life was found to be 7 min.
With `Cc1ccc2c(NCc3ccc(NC(=O)c4ccc(F)cc4)cc3)nc(N3CCCC3)nc2c1`, the half-life worked out at 2 min.
In the case of `CN(C)c1nc(NCc2ccc(NC(=O)c3ccc(F)cc3)cc2)c2ccc(CO)cc2n1`, the half-life is 22 min.
In the case of `CN(C)Cc1ccc2c(NCc3ccc(NC(=O)c4ccc(F)cc4)cc3)nc(N(C)C)nc2c1`, the half-life is 3 min.
`CNc1nc(NCc2ccc(NC(=O)c3ccc(F)cc3)cc2)c2ccccc2n1`: the half-life came to 21 min.
Consider `CNc1nc(NCc2ccc(NC(=O)c3ccc(Cl)nc3)cc2)c2ccccc2n1`, for which the half-life worked out at 17 min.
With `C=Cc1ccc2c(NCc3ccc(NC(=O)c4ccc(F)cc4)cc3)nc(N(C)C)nc2c1`, the half-life was found to be 6 min.
On to `CCc1ccc2c(NCc3ccc(NC(=O)c4ccc(F)cc4)cc3)nc(N(C)C)nc2c1`, for which the half-life amounted to 6 min.
On to `CNc1nc(NCc2ccc(NC(=O)c3ccc(Cl)nc3)cc2)c2cc(C)ccc2n1`, for which the half-life was 13 min.
Next, `CNc1nc(NCc2ccc(NC(=O)c3ccc(Cl)cc3)cc2)c2c(C)cccc2n1`: 12 min.
Turning to `CNc1nc(NCc2ccc(NC(=O)c3ccc(Cl)nc3)cc2)c2c(C)cccc2n1`, the half-life was determined as 2 min.
Take `Cc1ccc2c(NCc3ccc(NC(=O)c4ccc(F)cc4)cc3)nc(N3CCNC(C)(C)C3)nc2c1`: the half-life amounted to 3 min.
For `CNc1nc(NCc2ccc(NC(=O)c3ccc(Cl)cc3)cc2)c2cccc(C)c2n1`, the half-life is 11 min.
For the molecule `Cc1ccc2c(NCc3ccc(NC(=O)c4ccc(F)cc4)cc3)nc(N3CCN[C@H](C)C3)nc2c1`, the half-life was 4 min.
As to `CNc1nc(NCc2ccc(NC(=O)c3ccc(C(F)(F)F)cc3)cc2)c2ccccc2n1`, the half-life came out at 30 min.
For the molecule `CNc1nc(NCc2ccc(NC(=O)c3cccc(Cl)c3)cc2)c2ccccc2n1`, the half-life was 15 min.
Take `CNc1nc(NCc2ccc(NC(=O)c3ccc(F)cc3)cc2)c2cccc(C)c2n1`: the half-life was found to be 10 min.
Take `CCCNc1nc(NCc2ccc(NC(=O)c3ccc(F)cc3)cc2)c2ccc(C)cc2n1`: the half-life came out at 6 min.
Next, `CNc1nc(NCc2ccc(NC(=O)c3ccc(Cl)cc3)cc2)c2ccccc2n1`: 30 min; `CNc1nc(NCc2ccc(NC(=O)c3ccc(C#N)cc3)cc2)c2ccccc2n1`: 10 min.
In the case of `CNc1nc(NCc2ccc(NC(=O)c3ccc(Cl)nc3)cc2)c2cccc(C)c2n1`, the half-life is 22 min.
`CNc1nc(NCc2ccc(NC(=O)c3ccc(Cl)cc3)cc2)c2ccc(C)cc2n1`: the half-life was found to be 18 min.
On to `CNc1nc(NCc2ccc(NC(=O)c3ccc(-c4ccccc4)cc3)cc2)c2ccccc2n1`, for which the half-life came to 16 min.
Next, `CNc1nc(NCc2ccc(NC(=O)c3ccc(F)cc3)cc2)c2ccc(C)cc2n1`: above 30 min.
With `CNc1nc(NCc2ccc(NC(=O)c3ccc(Cl)nc3)cc2)c2ccc(C)cc2n1`, the half-life is 8 min.
As to `CN(C)c1nc(NCc2ccc(NC(=O)c3ccc(F)cc3)cc2)c2ccc(C#N)cc2n1`, the half-life was found to be 11 min.
Regarding `CN(C)c1nc(NCc2ccc(NC(=O)c3ccc(F)cc3)cc2)c2ccc(C=O)cc2n1`, the half-life is 3 min.
Regarding `CNc1nc(NCc2ccc(NC(=O)c3ccc(F)cc3)cc2)c2c(C)cccc2n1`, the half-life was 15 min.
In the case of `CC(O)c1ccc2c(NCc3ccc(NC(=O)c4ccc(F)cc4)cc3)nc(N(C)C)nc2c1` (racemic), the half-life was determined as 6 min.
